In assay [1] the test system is Zymoseptoria tritici. The experiment in a line: Leaf Blotch of Wheat fungicidal activity (SEPTTR). In kind it is in vivo. The following applies: for pest or weed control at 100 ppm: wheat, high volume; for pest or weed control at 121.5 g/ha: Low Volume Cereal Activity at 121.5 g/Ha.
Assay [2] relates to Puccinia triticina. The experiment in a line: Wheat Brown Rust fungicidal activity (PUCCRT). As to conditions: for pest or weed control at 100 ppm: wheat, high volume; for pest or weed control at 121.5 g/ha: Low Volume Cereal Activity at 121.5 g/Ha. It is filed as in vivo.
Where [3] appears, read: 24 h, 1 Day Protectant, read-out: SEPTTR 1DP % Control rating.
The mark [4] stands for this setting: 72 h, 3 Day Curative, read-out: SEPTTR 3DC % Control rating.
Where [5] appears, read: 24 h, 1 Day Protectant, read-out: PUCCRT 1DP % Control rating.
Where [6] appears, read: 72 h, 3 Day Curative, read-out: PUCCRT 3DC % Control rating.
The mark [7] stands for this setting: 24 h, 1 Day Protectant, read-out: SEPTTR 1DP (Wheat Leaf Blotch, 1 Day Protectant).
[8] abbreviates: 72 h, 3 Day Curative, read-out: SEPTTR 3DC (Wheat Leaf Blotch, 3 Day Curative).
The mark [9] stands for this setting: 24 h, 1 Day Protectant, read-out: PUCCRT 1DP (Wheat Brown Rust, 1 Day Protectant).
Setting [10] is: 72 h, 3 Day Curative, read-out: PUCCRT 3DC (Wheat Brown Rust, 3 Day Curative).

Read-outs that look alike come from different tables or passages of the source.

Consider `COc1ccnc(C(=O)N[C@@H](C)C(=O)O[C@@H](C)[C@@H](OC)c2ccccc2)c1O` [Example 140], for which the pest or weed control at 100 ppm was less than 0% in assay [1] (setting [3]), less than 80% in assay [1] (setting [4]), less than 80% in assay [2] (setting [5]) and more than 80% in assay [2] (setting [6]).
As for `COc1cc(C)ccc1[C@@H](Oc1ccccc1)[C@H](C)OC(=O)[C@H](C)NC(=O)c1nccc(OC)c1O` [Example 172], the pest or weed control at 100 ppm in assay [1] (setting [3]), in assay [1] (setting [4]), in assay [2] (setting [5]) and in assay [2] (setting [6]) was more than 80% throughout.
Take `COc1ccnc(C(=O)N[C@@H](C)C(=O)O[C@@H](C)[C@H](Oc2ccc(C)cc2Cl)c2ccc(F)cc2)c1O` [Example 150]: the pest or weed control at 100 ppm in assay [1] (setting [3]) is more than 80%; in assay [1] (setting [4]), less than 80%; in assay [2] (setting [5]), more than 80%; in assay [2] (setting [6]), more than 80%.
On to `COc1ccnc(C(=O)N[C@@H](C)C(=O)O[C@@H](C)[C@H](Oc2cccc(F)c2)c2cccc(-c3ccccc3)c2)c1OCOC(C)=O` [Example 221], for which the pest or weed control at 121.5 g/ha was more than 80% in assay [1] (setting [7]), less than 80% in assay [1] (setting [8]), more than 80% in assay [2] (setting [9]) and less than 80% in assay [2] (setting [10]).
As for `COc1cc(C)ccc1[C@@H](Oc1ccc(C)cc1)[C@H](C)OC(=O)[C@H](C)NC(=O)c1nccc(OC)c1O` [Example 177], the pest or weed control at 100 ppm in assay [1] (setting [3]) was more than 80%; in assay [1] (setting [4]) it was more than 80%; in assay [2] (setting [5]), less than 80%; in assay [2] (setting [6]) it was less than 0%.
Turning to `COc1ccnc(C(=O)N[C@@H](C)C(=O)O[C@@H](C)[C@H](Oc2ccccc2)c2cccc3ccccc23)c1O` [Example 165], the pest or weed control at 100 ppm in assay [1] (setting [3]), in assay [1] (setting [4]), in assay [2] (setting [5]) and in assay [2] (setting [6]) was more than 80% throughout.
For `COc1ccnc(C(=O)N[C@@H](C)C(=O)O[C@@H](C)[C@H](Oc2ccc(C(F)(F)F)cc2)c2ccccc2)c1OC(C)=O` [Example 196], the pest or weed control at 121.5 g/ha is more than 80% in assay [1] (setting [7]), more than 80% in assay [1] (setting [8]), more than 80% in assay [2] (setting [9]) and less than 80% in assay [2] (setting [10]).
As to `COc1ccnc(C(=O)N[C@@H](C)C(=O)O[C@@H](C)[C@@H](Oc2ccc(Cl)cc2Cl)c2ccccc2)c1OC(C)=O` [Example 214], the pest or weed control at 121.5 g/ha in assay [1] (setting [7]) was more than 80%; in assay [1] (setting [8]), more than 80%; in assay [2] (setting [9]), more than 80%; in assay [2] (setting [10]) it was less than 80%.
Consider `COc1ccnc(C(=O)N[C@@H](C)C(=O)O[C@@H](C)[C@@H](OCC(C)C)c2ccccc2)c1O` [Example 136], for which the pest or weed control at 100 ppm is less than 80% in assay [1] (setting [3]), less than 0% in assay [1] (setting [4]), less than 0% in assay [2] (setting [5]) and less than 80% in assay [2] (setting [6]).
With `COc1ccnc(C(=O)N[C@@H](C)C(=O)O[C@@H](C)[C@H](Oc2ccccc2)c2ccc(F)cc2Cl)c1O` [Example 163], the pest or weed control at 100 ppm in assay [1] (setting [3]), in assay [1] (setting [4]), in assay [2] (setting [5]) and in assay [2] (setting [6]) was more than 80% each time.
`COc1ccnc(C(=O)N[C@@H](C)C(=O)O[C@@H](C)[C@H](Oc2ccccc2)c2ccc(C)cc2F)c1O` [Example 164]: the pest or weed control at 100 ppm in assay [1] (setting [3]), in assay [1] (setting [4]), in assay [2] (setting [5]) and in assay [2] (setting [6]) was more than 80% in each case.
For the molecule `COc1ccnc(C(=O)N[C@@H](C)C(=O)O[C@@H](C)[C@H](Oc2ccc(C)cc2Cl)c2ccccc2)c1O` [Example 149], the pest or weed control at 100 ppm in assay [1] (setting [3]), in assay [1] (setting [4]), in assay [2] (setting [5]) and in assay [2] (setting [6]) was more than 80% in each case.
As for `CCCO[C@@H](c1ccccc1)[C@H](C)OC(=O)[C@H](C)NC(=O)c1nccc(OC)c1O` [Example 138], the pest or weed control at 100 ppm in assay [1] (setting [3]) was less than 80%; in assay [1] (setting [4]), less than 80%; in assay [2] (setting [5]), more than 80%; in assay [2] (setting [6]), more than 80%.
Regarding `COc1ccnc(C(=O)N[C@@H](C)C(=O)O[C@@H](C)[C@H](Oc2ccc(Cl)cc2Cl)c2ccccc2)c1OCOC(C)=O` [Example 199], the pest or weed control at 121.5 g/ha was more than 80% in assay [1] (setting [7]), more than 80% in assay [1] (setting [8]), more than 80% in assay [2] (setting [9]) and less than 80% in assay [2] (setting [10]).
As for `COc1ccnc(C(=O)N[C@@H](C)C(=O)O[C@@H](C)[C@@H](Oc2ccccc2)c2cccnc2)c1OC(C)=O` [Example 211], the pest or weed control at 121.5 g/ha was less than 0% in assay [1] (setting [7]), less than 80% in assay [1] (setting [8]), less than 0% in assay [2] (setting [9]) and less than 80% in assay [2] (setting [10]).
Take `CC[C@H](NC(=O)c1nccc(OC)c1O)C(=O)O[C@@H](C)[C@H](Oc1cc(F)ccc1F)c1ccccc1` [Example 123]: the pest or weed control at 100 ppm was less than 80% in assay [1] (setting [3]), less than 80% in assay [1] (setting [4]), more than 80% in assay [2] (setting [5]) and less than 80% in assay [2] (setting [6]).
Regarding `CC[C@H](NC(=O)c1nccc(OC)c1OCOC(C)=O)C(=O)O[C@@H](C)[C@H](Oc1cc(F)ccc1F)c1ccccc1` [Example 193], the pest or weed control at 121.5 g/ha is less than 80% in assay [1] (setting [7]), less than 0% in assay [1] (setting [8]), more than 80% in assay [2] (setting [9]) and more than 80% in assay [2] (setting [10]).
For the molecule `COc1ccnc(C(=O)N[C@@H](C)C(=O)O[C@@H](C)C(Oc2ccccc2)c2nccs2)c1OCOC(C)=O` (stereo partly shown) [Example 213], the pest or weed control at 121.5 g/ha in assay [1] (setting [7]) is less than 0%; in assay [1] (setting [8]), less than 80%; in assay [2] (setting [9]), more than 80%; in assay [2] (setting [10]), more than 80%.
On to `COc1ccnc(C(=O)N[C@@H](C)C(=O)O[C@@H](C)[C@H](Oc2ccccc2)c2ccc(F)cc2F)c1OC(C)=O` [Example 251], for which the pest or weed control at 121.5 g/ha in assay [1] (setting [7]), in assay [1] (setting [8]), in assay [2] (setting [9]) and in assay [2] (setting [10]) was more than 80% in each case.
In the case of `COc1ccnc(C(=O)N[C@@H](C)C(=O)O[C@@H](C)[C@@H](OCC(C)C)c2ccccc2)c1OC(C)=O` [Example 224], the pest or weed control at 121.5 g/ha in assay [1] (setting [7]) was less than 80%; in assay [1] (setting [8]) it was less than 80%; in assay [2] (setting [9]), more than 80%; in assay [2] (setting [10]) it was more than 80%.
Consider `COc1ccnc(C(=O)N[C@@H](C)C(=O)O[C@@H](C)[C@H](Oc2ccc(C)cc2)c2ccc(F)cc2)c1OC(C)=O` [Example 247], for which the pest or weed control at 121.5 g/ha in assay [1] (setting [7]), in assay [1] (setting [8]), in assay [2] (setting [9]) and in assay [2] (setting [10]) was more than 80% each time.
As to `COc1ccnc(C(=O)N[C@@H](C)C(=O)O[C@@H](C)[C@H](Oc2cc(F)ccc2F)c2ccccc2)c1O` [Example 121], the pest or weed control at 100 ppm was less than 80% in assay [1] (setting [3]), more than 80% in assay [1] (setting [4]), more than 80% in assay [2] (setting [5]) and less than 80% in assay [2] (setting [6]).
On to `COc1ccnc(C(=O)N[C@@H](C)C(=O)O[C@@H](C)[C@H](Oc2ccc(Cl)cc2Cl)c2ccccc2)c1OC(C)=O` [Example 200], for which the pest or weed control at 121.5 g/ha in assay [1] (setting [7]) is more than 80%; in assay [1] (setting [8]), more than 80%; in assay [2] (setting [9]) it was more than 80%; in assay [2] (setting [10]), less than 80%.
For the molecule `COc1ccnc(C(=O)N[C@@H](C)C(=O)O[C@@H](C)[C@@H](Oc2ccc(Cl)cc2Cl)c2ccccc2)c1O` [Example 134], the pest or weed control at 100 ppm is more than 80% in assay [1] (setting [3]), less than 80% in assay [1] (setting [4]), more than 80% in assay [2] (setting [5]) and more than 80% in assay [2] (setting [6]).
For `COc1ccnc(C(=O)N[C@@H](C)C(=O)O[C@@H](C)[C@H](Oc2cc(F)cc(Cl)c2)c2ccccc2)c1O` [Example 122], the pest or weed control at 100 ppm in assay [1] (setting [3]), in assay [1] (setting [4]), in assay [2] (setting [5]) and in assay [2] (setting [6]) was more than 80% each time.
For `COc1ccnc(C(=O)N[C@@H](C)C(=O)O[C@@H](C)[C@H](Oc2ccc(C)cc2)c2ccc(C)cc2)c1OCOC(C)=O` [Example 257], the pest or weed control at 121.5 g/ha in assay [1] (setting [7]), in assay [1] (setting [8]), in assay [2] (setting [9]) and in assay [2] (setting [10]) was more than 80% each time.
For `CC[C@H](NC(=O)c1nccc(OC)c1OC(C)=O)C(=O)O[C@@H](C)[C@H](Oc1cc(F)cc(Cl)c1)c1ccccc1` [Example 209], the pest or weed control at 121.5 g/ha was more than 80% in assay [1] (setting [7]), more than 80% in assay [1] (setting [8]), more than 80% in assay [2] (setting [9]) and less than 80% in assay [2] (setting [10]).
For `COc1ccnc(C(=O)N[C@@H](C)C(=O)O[C@@H](C)[C@H](Oc2ccccc2Cl)c2ccccc2)c1O` [Example 117], the pest or weed control at 100 ppm in assay [1] (setting [3]), in assay [1] (setting [4]), in assay [2] (setting [5]) and in assay [2] (setting [6]) was more than 80% in each case.

The values above are taken from US20180002288A1, “USE OF PICOLINAMIDES AS FUNGICIDES” (DOW AGROSCIENCES LLC, priority 2014, published 2018).
